Laboratory results reported in ChEMBL document CHEMBL1129670, “Synthesis and structure-activity relationships of N-propyl-N-(4-pyridinyl)-1H-indol-1-amine (besipirdine) and related analogs as potential therapeutic agents for Alzheimer's disease” (J Med Chem, 1996).

Key:
[1] = biological target: Muscarinic acetylcholine receptor; format: cell membranes, Membrane
Description: Inhibition of [3H]quinuclidinyl benzilate (QNB) binding from rat forebrain membranes in the presence of Zn

Mus musculus [2] = experiment: Antagonistic activity against Scopolamine induced behavioral deficits in mice at dose 0.16 mg/kg sc; format: functional; details: route subcutaneous
Mus musculus [3] = species: Mus musculus; experiment: animal or person
Description: Effective dose against administration in mice

Mus musculus [4] = species: Mus musculus; details: dose 0.63 mg/kg; route subcutaneous
Description: Antagonistic activity against Scopolamine induced behavioral deficits in mice at dose 0.63 mg/kg sc

[5] = biological target: Muscarinic acetylcholine receptor; format: cell membranes, Membrane; remark: listed apart in the source
Description: Inhibition of [3H]quinuclidinyl benzilate (QNB) binding from rat forebrain membranes in the absence of Zn

Mus musculus [6] = species: Mus musculus; experiment: Antagonistic activity against Scopolamine induced behavioral deficits in mice; 2/6; format: functional
[7] = biological target: Sodium-dependent noradrenaline transporter (Homo sapiens, UniProt P23975)
Description: Inhibitory activity against norepinephrine (NE) uptake in rat whole brain synaptosome preparation

Mus musculus [8] = experiment: Antagonistic activity against Scopolamine induced behavioral deficits in mice at dose […] sc; format: functional; details: route subcutaneous
Mus musculus [9] = experiment: Antagonistic activity against Scopolamine induced behavioral deficits in mice at dose 0.04 mg/kg sc; format: functional; details: route subcutaneous
Acetylcholinesterase = biological target: T1, Acetylcholinesterase (Rattus norvegicus, UniProt P37136)
T1 sequence (P37136 whole entry): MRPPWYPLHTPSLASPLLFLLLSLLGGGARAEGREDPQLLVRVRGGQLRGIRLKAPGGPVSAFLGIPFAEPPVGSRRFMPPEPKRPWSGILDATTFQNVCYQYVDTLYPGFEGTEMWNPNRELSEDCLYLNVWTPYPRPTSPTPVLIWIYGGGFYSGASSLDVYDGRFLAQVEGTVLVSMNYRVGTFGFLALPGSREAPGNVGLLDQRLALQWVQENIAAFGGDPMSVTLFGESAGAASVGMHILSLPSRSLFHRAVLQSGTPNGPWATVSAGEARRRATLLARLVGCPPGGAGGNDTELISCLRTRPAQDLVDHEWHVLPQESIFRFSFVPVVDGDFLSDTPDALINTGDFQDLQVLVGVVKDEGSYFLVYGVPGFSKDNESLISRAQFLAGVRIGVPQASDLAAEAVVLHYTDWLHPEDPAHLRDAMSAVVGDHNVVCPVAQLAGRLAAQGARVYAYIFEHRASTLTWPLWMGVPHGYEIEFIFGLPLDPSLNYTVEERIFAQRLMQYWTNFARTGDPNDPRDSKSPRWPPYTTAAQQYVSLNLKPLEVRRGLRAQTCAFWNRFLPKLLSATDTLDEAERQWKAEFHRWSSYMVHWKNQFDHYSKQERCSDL
Description: Inhibitory activity against acetylcholinesterase in rat striatal preparation

Mus musculus [10] = species: Mus musculus; experiment: Antagonistic activity against Scopolamine induced behavioral deficits in mice; 2/10; format: functional
[11] = biological target: T2, Adrenergic receptor alpha-2 (Rattus norvegicus, UniProt P22086+P19328+P22909); experiment: Inhibitory activity against [3H]clonidine binding to Alpha-2 adrenergic receptor in rat cortex
T2 sequence (P22086 whole entry): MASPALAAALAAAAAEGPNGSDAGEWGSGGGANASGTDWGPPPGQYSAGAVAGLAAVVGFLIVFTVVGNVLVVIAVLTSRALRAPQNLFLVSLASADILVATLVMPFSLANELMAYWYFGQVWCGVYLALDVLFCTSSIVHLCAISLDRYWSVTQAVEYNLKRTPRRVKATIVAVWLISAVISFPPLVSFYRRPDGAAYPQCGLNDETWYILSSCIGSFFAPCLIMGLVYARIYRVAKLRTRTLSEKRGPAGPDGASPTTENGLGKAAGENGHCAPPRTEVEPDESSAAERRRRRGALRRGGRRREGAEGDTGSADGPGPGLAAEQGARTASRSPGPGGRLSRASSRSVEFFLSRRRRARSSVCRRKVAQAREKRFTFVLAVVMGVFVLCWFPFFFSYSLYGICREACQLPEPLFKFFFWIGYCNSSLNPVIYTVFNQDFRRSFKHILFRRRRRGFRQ
T2 sequence (P19328 whole entry): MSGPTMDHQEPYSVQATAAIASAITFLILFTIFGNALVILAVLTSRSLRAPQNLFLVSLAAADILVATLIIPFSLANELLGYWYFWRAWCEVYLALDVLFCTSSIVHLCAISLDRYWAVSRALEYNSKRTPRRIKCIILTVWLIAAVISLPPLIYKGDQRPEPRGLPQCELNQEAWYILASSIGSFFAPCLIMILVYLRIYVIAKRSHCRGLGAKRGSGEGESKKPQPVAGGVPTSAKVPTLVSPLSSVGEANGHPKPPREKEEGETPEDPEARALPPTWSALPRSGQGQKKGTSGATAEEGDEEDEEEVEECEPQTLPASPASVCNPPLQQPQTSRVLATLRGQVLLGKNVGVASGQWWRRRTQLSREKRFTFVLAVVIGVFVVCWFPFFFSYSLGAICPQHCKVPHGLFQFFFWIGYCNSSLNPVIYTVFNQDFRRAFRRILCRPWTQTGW
T2 sequence (P22909 whole entry): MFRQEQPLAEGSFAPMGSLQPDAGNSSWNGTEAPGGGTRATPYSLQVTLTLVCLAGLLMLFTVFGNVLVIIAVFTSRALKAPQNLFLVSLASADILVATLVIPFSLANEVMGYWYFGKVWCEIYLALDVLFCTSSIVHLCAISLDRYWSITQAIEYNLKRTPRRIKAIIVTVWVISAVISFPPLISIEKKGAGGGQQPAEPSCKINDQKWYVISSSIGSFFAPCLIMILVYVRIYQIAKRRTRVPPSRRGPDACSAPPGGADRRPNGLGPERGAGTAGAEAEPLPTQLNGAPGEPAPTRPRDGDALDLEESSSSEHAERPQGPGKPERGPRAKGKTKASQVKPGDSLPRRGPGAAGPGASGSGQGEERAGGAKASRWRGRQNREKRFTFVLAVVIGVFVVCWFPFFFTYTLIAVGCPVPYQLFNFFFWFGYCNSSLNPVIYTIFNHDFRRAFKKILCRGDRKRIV

Mus musculus [12] = experiment: Antagonistic activity against Scopolamine induced behavioral deficits in mice at dose 1.25 mg/kg sc; format: functional; details: route subcutaneous
Mus musculus [13] = experiment: Antagonistic activity against Scopolamine induced behavioral deficits in mice at dose 5.0 mg/kg sc; 2/8; format: functional
[14] = biological target: T3, Adrenergic receptor alpha-1 (Rattus norvegicus, UniProt P15823+P23944+P43140); experiment: Inhibitory activity against [3H]WB-4101 binding to Alpha-1 adrenergic receptor in rat whole brain membrane; format: cell membranes
T3 sequence (P15823 whole entry): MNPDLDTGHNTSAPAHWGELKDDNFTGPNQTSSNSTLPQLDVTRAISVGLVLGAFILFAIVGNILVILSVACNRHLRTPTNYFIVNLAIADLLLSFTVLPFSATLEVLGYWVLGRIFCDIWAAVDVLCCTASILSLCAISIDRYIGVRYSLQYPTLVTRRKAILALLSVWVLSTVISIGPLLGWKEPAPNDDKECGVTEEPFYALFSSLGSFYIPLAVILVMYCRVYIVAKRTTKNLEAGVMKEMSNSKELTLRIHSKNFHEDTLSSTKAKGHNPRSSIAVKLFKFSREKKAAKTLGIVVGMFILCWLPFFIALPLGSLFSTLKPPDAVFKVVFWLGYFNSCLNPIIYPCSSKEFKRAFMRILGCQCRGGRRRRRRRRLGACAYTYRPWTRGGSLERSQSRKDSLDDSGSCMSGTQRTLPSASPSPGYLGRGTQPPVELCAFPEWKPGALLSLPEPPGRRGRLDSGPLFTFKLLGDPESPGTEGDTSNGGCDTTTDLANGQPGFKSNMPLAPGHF
T3 sequence (P23944 whole entry): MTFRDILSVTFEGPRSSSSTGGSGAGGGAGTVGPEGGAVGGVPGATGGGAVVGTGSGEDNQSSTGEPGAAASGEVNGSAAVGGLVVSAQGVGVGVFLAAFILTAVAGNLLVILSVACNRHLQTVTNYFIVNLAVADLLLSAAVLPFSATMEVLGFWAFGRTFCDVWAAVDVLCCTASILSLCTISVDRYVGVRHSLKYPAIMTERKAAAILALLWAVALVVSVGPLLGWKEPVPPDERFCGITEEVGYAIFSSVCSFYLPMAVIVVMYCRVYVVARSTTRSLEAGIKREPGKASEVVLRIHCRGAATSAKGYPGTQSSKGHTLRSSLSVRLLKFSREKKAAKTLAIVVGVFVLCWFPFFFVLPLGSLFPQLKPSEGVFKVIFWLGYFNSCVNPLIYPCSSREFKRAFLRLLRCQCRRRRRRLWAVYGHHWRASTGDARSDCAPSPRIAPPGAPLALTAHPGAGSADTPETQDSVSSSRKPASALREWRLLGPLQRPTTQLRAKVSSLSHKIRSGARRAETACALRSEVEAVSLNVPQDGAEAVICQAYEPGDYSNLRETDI
T3 sequence (P43140 whole entry): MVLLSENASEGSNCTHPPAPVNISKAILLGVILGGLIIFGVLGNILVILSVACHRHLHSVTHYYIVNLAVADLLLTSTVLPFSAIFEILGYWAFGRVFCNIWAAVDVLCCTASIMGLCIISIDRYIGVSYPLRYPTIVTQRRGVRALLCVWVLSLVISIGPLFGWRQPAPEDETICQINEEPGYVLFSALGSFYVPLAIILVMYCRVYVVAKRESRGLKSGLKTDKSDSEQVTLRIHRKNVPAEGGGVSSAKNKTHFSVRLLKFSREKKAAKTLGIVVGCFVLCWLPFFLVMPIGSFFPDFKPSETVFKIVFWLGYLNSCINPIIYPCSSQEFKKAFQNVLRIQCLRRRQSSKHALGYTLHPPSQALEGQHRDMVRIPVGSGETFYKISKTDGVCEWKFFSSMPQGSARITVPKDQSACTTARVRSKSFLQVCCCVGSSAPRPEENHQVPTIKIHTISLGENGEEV

Mus musculus [15] = experiment: Antagonistic activity against Scopolamine induced behavioral deficits in mice at dose 10 mg/kg sc; format: functional; details: route subcutaneous

Chain of Sodium-dependent noradrenaline transporter (P23975 whole entry): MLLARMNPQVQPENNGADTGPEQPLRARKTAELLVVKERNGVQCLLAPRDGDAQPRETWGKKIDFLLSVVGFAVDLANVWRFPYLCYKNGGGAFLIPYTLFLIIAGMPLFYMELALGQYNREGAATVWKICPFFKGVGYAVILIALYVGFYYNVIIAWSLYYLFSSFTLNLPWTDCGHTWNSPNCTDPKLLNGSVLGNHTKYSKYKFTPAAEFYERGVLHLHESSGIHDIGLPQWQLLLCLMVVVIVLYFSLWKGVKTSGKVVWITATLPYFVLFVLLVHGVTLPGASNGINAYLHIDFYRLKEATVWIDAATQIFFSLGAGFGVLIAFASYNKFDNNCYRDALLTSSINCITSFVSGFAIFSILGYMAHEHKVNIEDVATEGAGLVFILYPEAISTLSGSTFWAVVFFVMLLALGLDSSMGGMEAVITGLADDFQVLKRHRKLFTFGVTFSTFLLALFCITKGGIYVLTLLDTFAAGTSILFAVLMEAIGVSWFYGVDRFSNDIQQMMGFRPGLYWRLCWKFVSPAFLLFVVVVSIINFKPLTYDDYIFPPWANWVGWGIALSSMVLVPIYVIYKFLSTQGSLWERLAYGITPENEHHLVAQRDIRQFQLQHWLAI

Row | Compound | IC50 [1] [µM] | Response (Mus musculus [2]) [%] | ED50 (Mus musculus [3]) [mg/kg] | Response (Mus musculus [4]) [%] | IC50 [5] [µM] | Antagonism (Mus musculus [6]) | IC50 [7] [nM] | Response (Mus musculus [8]) [%] | Response (Mus musculus [9]) [%] | IC50 (Acetylcholinesterase) [µM] | Antagonism (Mus musculus [10]) | IC50 [11] [µM] | Response (Mus musculus [12]) [%] | Antagonism (Mus musculus [13]) | IC50 [14] [µM] | Response (Mus musculus [15]) [%]
1 | CCCN(c1[nH]cnc2ncnc1-2)n1ccc2ccccc21 | 58 | 20 | > 20 | 20 | > 300 | 2 | 12000 |  |  |  |  |  |  |  |  | 
2 | CCCN(c1ccncc1)n1cc(C)c2ccccc21 | 4.5 |  | 1.8 |  | 19 |  | 1300 | 20 | 22 | 29 | 2 | 2.5 |  |  |  | 
3 | CCCN(c1ccncc1)n1c2ccccc2c2ccccc21.O=C(O)/C=C/C(=O)O | 0.5 |  | 1.5 |  | 5.5 |  | 2400 |  |  | > 100 |  | 0.54 | 20 | 2 | 3.2 | 24
